Experimental data from patent US20110077279A1, “ANGIOTENSIN II RECEPTOR ANTAGONISTS” (priority 2008, published 2011).

What was measured:
[1] = test system: conscious spontaneously hypertensive rats (SHRs); test: Assay for antihypertensive activity (in vivo), telemetry; set-up: species or system rat
Method: The ability of the compounds of the invention to decrease blood pressure was evaluated in conscious spontaneously hypertensive rats (SHRs). SHRs (250-300 g) received a single oral dose of tested compounds. Systolic blood pressure (SBP) and heart rate were monitored by telemetry for 24 hrs after dosing. SBP was evaluated before (baseline) and at different time points (i.e. 2-6, 12, 21-24 hrs) following treatment by oral administration of the compounds. The data were processed both as the absolute value or as a delta between the absolute value and its own baseline.
The Dataquest IV telemetry system (Data Sciences International) was used for measurement of systolic pressure, diastolic pressure, mean arterial pressure, heart rate, and motor activity. The monitoring system consists of a transmitter (radio frequency transducer model TA11PA), receiver panel, consolidation matrix, and personal computer with accompanying software. Before the device was implanted, calibrations were verified to be accurate within ±3 mmHg. Rats were anesthetized with ketamine/xylazine/acepromazine, and the flexible catheter of the transmitter was surgically secured in the abdominal aorta just below the renal arteries. The transmitter was sutured subcutaneously. Rats were housed in individual cages after the operation. Each cage was placed over the receiver panel that was connected to the personal computer for data acquisition. The rats were unrestrained and free to move within their cages. Hemodynamic data were sampled every 2 minutes for 10 seconds.
Compared to Compound A (reference compound), the compounds of the invention provided BP lowering with extended peak effect and duration of action (see Data Table 2).

[2] = test system: isolated rabbit thoracic aorta preparations; test: Assay on vascular tone: vasorelaxation of noradrenaline-precontracted aortic rings; assay type: cell-based; details: Oryctolagus cuniculus; rabbit aortic rings precontracted with noradrenaline 1 μM, functional endothelium; read-out: EC50 in vessel relaxation assay
Method: The ability of the compounds of the invention to induce vasorelaxation in comparison to native angiotensin II receptor blockers (ARBs), was tested in vitro in isolated rabbit thoracic aorta preparations (Wanstall J. C. et al., Br. J. Pharmacol., 134:463-472, 2001). Male New Zealand rabbits were anaesthetized with thiopental-Na (50 mg/kg, iv), sacrificed by exsanguinations and then the thorax was opened and the aorta dissected. Aortic ring preparations (4 mm in length) were set up in physiological salt solution (PSS) at 37° C. in small organ chambers (5 ml). The composition of PSS was (mM): NaCl 130, NaHCO3 14.9, KH2PO4 1.2, MgSO4 1.2, HEPES 10, […] (95% O2/5% CO2; pH 7.4). Each ring was mounted under 2 g passive tension. Isometric tension was recorded with a Grass transducer (Grass FT03) attached to a BIOPAC MP150 System. Preparations were allowed to equilibrate for 1 h, and then contracted submaximally with noradrenaline (NA, 1 μM) and, when the contraction was stable, acetylcholine (ACh, 10 μM) was added. A relaxant response to ACh indicated the presence of a functional endothelium. […] When a stable precontraction was reached, a cumulative concentration-response curve to either of the vasorelaxant agents was obtained in the presence of a functional endothelium. Each arterial ring was exposed to only one combination of inhibitor and vasorelaxant. Moreover, the effect of the soluble guanylyl cyclase inhibitor ODQ (1-H-(1,2,4)-oxadiazol(4,3-a)quinoxalin-1-one) on vasorelaxation elicited by the compounds was examined preincubating the aortic rings with ODQ (10 μM) for 20 min.
Responses to relaxing agents are expressed as a percentage of residual contraction and plotted against concentration of test compound. EC50 values (where EC50 is the concentration producing 50% of the maximum relaxation to the test compound) were interpolated from these plots.
During the experimental period, the plateau obtained with NA was stable without significant spontaneous loss of contraction in the aortic rings. […]

[3] = 2-6 h after single oral dose, 10 mpk
[4] = 21-24 h after single oral dose, 10 mpk
[5] = 12 h after single oral dose, 10 mpk

Structure (SMILES): CCCCc1nc(Cl)c(C(=O)OCCOCCO[N+](=O)[O-])n1Cc1ccc(-c2ccccc2-c2nn[nH]n2)cc1 [A, reference compound]
- Δ SBP in SHR [1, 3]: −15 mmHg
- Δ SBP in SHR [1, 4]: −8 mmHg
- Δ SBP in SHR [1, 5]: −12 mmHg

Structure (SMILES): CCCCc1nc(Cl)c(C(=O)OC(C)OC(=O)O[C@@H]2CO[C@H]3[C@@H]2OC[C@H]3OC(=O)CCCC(CO[N+](=O)[O-])O[N+](=O)[O-])n1Cc1ccc(-c2ccccc2-c2nnn[nH]2)cc1 (stereo partly drawn) [Example 1, 1-(((3R,3aR,6R,6aR)-6-(5,6-bis(nitrooxy)hexanoyloxy)hexahydrofuro[3,2-b]furan-3-yloxy)carbonyloxy)ethyl 1-((2′-(1H-tetrazol-5-yl)biphenyl-4-yl)methyl)-2-butyl-4-chloro-1H-imidazole-5-carboxylate]
- EC50 [2]: 6200 nM
- Δ SBP in SHR [1, 3]: −19 mmHg
- Δ SBP in SHR [1, 4]: −11 mmHg
- Δ SBP in SHR [1, 5]: −14 mmHg

Structure (SMILES): CCOc1nc2cccc(C(=O)OC(C)(C)OC(=O)O[C@@H]3CO[C@H]4[C@@H]3OC[C@H]4OC(=O)CCCC(CO[N+](=O)[O-])O[N+](=O)[O-])c2n1Cc1ccc(-c2ccccc2-c2nnn[nH]2)cc1 (stereo partly drawn) [Example 2, 2-(((3R,3aR,6R,6aR)-6-(5,6-bis(nitrooxy)hexanoyloxy)hexahydrofuro[3,2-b]furan-3-yloxy)carbonyloxy)propan-2-yl 1-((2′-(1H-tetrazol-5-yl)biphenyl-4-yl)methyl)-2-ethoxy-1H-benzo[d]imidazole-7-carboxylate]
- EC50 [2]: 270 nM
- Δ SBP in SHR ([1]; 2-6 h after single oral dose, 3 mpk): −37 mmHg
- Δ SBP in SHR ([1]; 21-24 h after single oral dose, 3 mpk): −33 mmHg
- Δ SBP in SHR ([1]; 12 h after single oral dose, 3 mpk): −34 mmHg

Structure (SMILES): CCOc1nc2cccc(C(=O)OC(C)(C)OC(=O)O[C@@H]3CO[C@H]4[C@@H]3OC[C@H]4OC(=O)OCCC(C)(C)CC(CO[N+](=O)[O-])O[N+](=O)[O-])c2n1Cc1ccc(-c2ccccc2-c2nn[nH]n2)cc1 (stereo partly drawn) [Example 3, 2-(((3R,3aR,6R,6aR)-6-((3,3-dimethyl-5,6-bis(nitrooxy)hexyloxy)carbonyloxy)hexahydrofuro[3,2-b]furan-3-yloxy)carbonyloxy)propan-2-yl 1-((2′-(2H-tetrazol-5-yl)biphenyl-4-yl)methyl)-2-ethoxy-1H-benzo[d]imidazole-7-carboxylate]
- EC50 [2]: 180 nM
